The record followed here is PMC10903983, “Inducing mitochondriopathy-like damages by transformable nucleopeptide nanoparticles for targeted therapy of bladder cancer” (National Science Review, 2024).

One data set has as its system EJ cells. It is filed as cell-based. As to conditions: human, 48 h.
The next data set deals with RT-112 cells. It is filed as cell-based. As to conditions: human, 48 h.
The next data set relates to T24 cells. In words: CCK-8 cytotoxicity assay, T24 cells. The format is cell-based, human. Particulars: 48 h; for IC50: human.
Data set [1] relates to T24 xenograft mice. Briefly: In vivo / ex vivo dose-dependent fluorescence imaging in T24 xenograft mice. Particulars: i.v., 500 μM or 250 μM in 200 μL PBS, 1-96 hours, N = 3.
Data set [2] has as its system T24 xenograft mice. In words: In vivo antitumor evaluation, T24 subcutaneous xenograft model. Particulars: i.v. 500 μM in 200 μL PBS six times. On the procedure: 3 mm at 8 h post-treatment. The fragments were then fixed with 2.5% glutaraldehyde at 4°C overnight and treated with 1% […] for 2 h after being rinsed thrice with PBS.
Subsequently, graded concentrations of alcohol solutions (50, 70, 80, 90, 100, 100 and 100%) were utilized for graded dehydration (with 10 minutes each). Next, tumor fragments were exposed to a mixture of alcohol/acetone (1:1) for 10 min, a mixture of acetone/EPON-812 (1:1) for 1 h and a mixture of acetone/EPON-812 (1:2) for 1 h. Pure EPON-812 was then utilized to further infiltrate the tumor fragments overnight at 4°C, after which it was cured at 37, 45 and 60°C for 24 h respectively. Finally, the morphology of NLS-FF-T in the tumor slice was observed by bio-Transmission Electron Microscope (bio-TEM) after being stained with 2% uranyl acetate and 3% lead citrate.
To further verify the therapeutic potency of the IAS system, a T24 xenograft mouse […]
When the average tumor volume reached 100-200 mm3, the T24 tumor-bearing mice were […]
The individual tumor growth and body weight were measured every 2 d for analysis, with tumor volume calculated as follows: tumor width2 × tumor length × 0.5. […]
At the end of the treatment period, T24 tumor tissues were collected and washed thrice with PBS. […] The ATP levels were then measured according to the manufacturer’s instructions using an ATP Content Assay Kit. […]

The test system of data set [3] is T24 xenograft mice (incomplete tumor resection). As to conditions: after intravenous administration, tumor-recurrence model.
Method: In vivo antitumor evaluation of IAS system in regrowth of residual tumor model
To establish the T24 xenograft mouse model, BALB/c nude mice (approximately 6-8
weeks, weighing 16-18 g) were subcutaneously injected with T24 cells (5 × 106) suspended
in 100 μL Matrigel. The mice were randomly divided into five groups, with six mice in each
group. Both body weight and tumor volume were measured for analysis. At 21 d after
inoculation, tumor tissues of approximately 300-500 mm3 were resected, leaving a residual
tumor of approximately 30-50 mm3. After that, the T24 xenograft mice were intravenously
administered with PBS, NLS-FF, FF-T, NLS-T and NLS-FF-T (500 μM in 200 μL PBS)
every two days on day 21, 23, 25, 27, 29 and 31. The tumor volume was calculated using the formula: tumor width2 × tumor length × 0.5.
For two-group comparisons, statistical analysis was performed using one-way ANOVA
followed by post hoc Tukey's test. The GraphPad Prism software 8.0 was used for all
The nature of data set [4]: ATP sequestration: ATP hydrolysis by alkaline phosphatase (ALP). The format is biochemical. As to conditions: ATP 200 μM, ALP 0.5 U/mL, DEA buffer 10 mM pH 9.8, 37 °C, bioluminescence, blank control 13%.
The test system of the next data set is SV-HUC-1 cells. In words: Toxicity assay towards SV-HUC-1 normal bladder cells. Particulars: viability, different concentrations, 48 h. The format is cell-based.
For the next data set, the system named is healthy BALB/c nude mice. Briefly: In vivo toxicology evaluation in healthy mice. As to conditions: N = 4.
[5] abbreviates: i.v. 1000, 500 or 250 μM in 200 μL PBS six times.

Non-standard residues stand in square brackets, D forms with d. Residues, ends and D or L forms follow the SMILES beside them. *: point of attachment. Coumarin3carbonyl(7-OH) = O=C(c1cc2ccc(O)cc2oc1=O)*; Acetyl(thymin-1-yl) = Cc1cn(CC(=O)*)c(=O)[nH]c1=O; PEG8 = NCCOCCOCCOCCOCCOCCOCCOCCOCCC(=O)O

Regarding `Cc1cn(CC(=O)NCCCC[C@H](NC(=O)c2cc3ccc(O)cc3oc2=O)C(=O)N[C@@H](CC(C)C)C(=O)N[C@H](C(=O)N[C@@H](Cc2ccccc2)C(=O)N[C@@H](Cc2ccccc2)C(=O)NCCOCCOCCOCCOCCOCCOCCOCCOCCC(=O)NCCOCCOCCOCCOCCOCCOCCOCCOCCC(=O)O)C(C)C)c(=O)[nH]c1=O` [FF-T, HCA-K(T)LVFF-PEG2] ({Coumarin3carbonyl(7-OH)}-K(Acetyl(thymin-1-yl))LVFF[PEG8][PEG8]-OH), the IC50 in the data set with EJ cells came out at 181 µM; with RT-112 cells it was 356 µM; in the data set with T24 cells it was 408 µM.
`Cc1cn(CC(=O)NCCCC[C@H](NC(=O)c2cc3ccc(O)cc3oc2=O)C(=O)N[C@@H](CC(C)C)C(=O)N[C@H](C(=O)N[C@@H](Cc2ccccc2)C(=O)N[C@@H](Cc2ccccc2)C(=O)NCCOCCOCCOCCOCCOCCOCCOCCOCCC(=O)N[C@H](C(=O)N[C@@H](CCCCN)C(=O)N[C@@H](CCCNC(=N)N)C(=O)N[C@@H](CCCCN)C(=O)N[C@@H](CCCCN)C(=O)N[C@@H](CCCCN)C(=O)N2CCC[C@H]2C(=O)O)C(C)C)C(C)C)c(=O)[nH]c1=O` [NLS-FF-T, HCA-K(T)LVFF-PEG-VKRKKKP] ({Coumarin3carbonyl(7-OH)}-K(Acetyl(thymin-1-yl))LVFF[PEG8]VKRKKKP-OH): the “tumor accumulation and retention (in vivo fluorescence imaging)” value with T24 xenograft mice [1] was “dose-dependent tumor accumulation and long-time tumor retention”. In the data set on T24 xenograft mice [2], the body weight entry was “no substantial loss of body weight”. Besides, the body weights entry in [3] was “no impact”. The “ATP remaining after ALP catalytic hydrolysis” value is 61% in data set [4] (NLS-FF-T nanofibers) and 27% in data set [4] (NLS-FF-T nanoparticle group). Moreover, the figures for the IC50 with EJ cells, in the data set on RT-112 cells and in the data set on T24 cells were 32 µM, 43.3 µM and 34 µM, respectively. Also, the “toxicity towards T24 tumor cells versus SV-HUC-1 normal bladder cells” value in the data set on SV-HUC-1 cells is “enhanced toxicity towards tumor cells (T24) than that of normal cells (SV-HUC-1)”. The “histology (H&E) of liver and kidney” value in the data set with healthy BALB/c nude mice (i.v. 1000, 500 or 250 μM in 200 μL PBS six times at 2-day intervals) is “no signs of histological deterioration or damage”. Moreover, the “blood biochemistry (ALT, AST, ALP, BUN, CRE)” value in the data set on healthy BALB/c nude mice (setting [5]) is “typical ranges”. Also, the “routine blood examination (RBC, WBC, PLT, HGB, NEUT) versus PBS” value in the data set with healthy BALB/c nude mice (setting [5]) is recorded as “no differences”. Also, the “cytotoxicity against T24 cells compared with T-ATP” value in the data set on T24 cells (viability, different concentrations) is “significantly higher cytotoxicity against T24 cells than that of T-ATP”.
In the case of `Cc1cn(CC(=O)NCCCC[C@H](NC(=O)c2cc3ccc(O)cc3oc2=O)C(=O)N[C@@H](CC(C)C)C(=O)N[C@H](C(=O)NCCOCCOCCOCCOCCOCCOCCOCCOCCC(=O)N[C@H](C(=O)N[C@@H](CCCCN)C(=O)N[C@@H](CCCNC(=N)N)C(=O)N[C@@H](CCCCN)C(=O)N[C@@H](CCCCN)C(=O)N[C@@H](CCCCN)C(=O)N2CCC[C@H]2C(=O)O)C(C)C)C(C)C)c(=O)[nH]c1=O` [NLS-T, HCA-K(T)LV-PEG-VKRKKKP] ({Coumarin3carbonyl(7-OH)}-K(Acetyl(thymin-1-yl))LV[PEG8]VKRKKKP-OH), the half-inhibitory concentration (IC50) is 122 µM in the data set on EJ cells, 107 µM in the data set with RT-112 cells and 119 µM in the data set with T24 cells.
The matching figures for `CC(C)C[C@H](NC(=O)[C@H](CCCCN)NC(=O)c1cc2ccc(O)cc2oc1=O)C(=O)N[C@H](C(=O)N[C@@H](Cc1ccccc1)C(=O)N[C@@H](Cc1ccccc1)C(=O)NCCOCCOCCOCCOCCOCCOCCOCCOCCC(=O)N[C@H](C(=O)N[C@@H](CCCCN)C(=O)N[C@@H](CCCNC(=N)N)C(=O)N[C@@H](CCCCN)C(=O)N[C@@H](CCCCN)C(=O)N[C@@H](CCCCN)C(=O)N1CCC[C@H]1C(=O)O)C(C)C)C(C)C` [NLS-FF, HCA-KLVFF-PEG-VKRKKKP] ({Coumarin3carbonyl(7-OH)}-KLVFF[PEG8]VKRKKKP-OH): 278 µM, 376 µM and 532 µM.
